# “Also recorded” adds a separate entry of the source. Where two headings read alike, the source gives them in different places.
# What was measured:
# σ1 receptor (S1R) = settings: cited from earlier work
# neurons (NeuN) = assay: NeuN immunohistochemistry after intrastriatal AMPA; type: in vivo, rat
# Procedure: Animals were maintained normothermic (body temperature: 37.0 ± 0.4 °C) during the surgery through the use of a heating blanket (Homeothermic Blanket Control Unit, Harvard Apparatus Limited®, Edenbridge, Kent, UK). Twenty-four hours later, the rats were anesthetized again as described above and scanned with a 3T cryogen-free MRS 3000 scanner with a quadrature, rat head coil (MR Solutions, Guildford, UK), [35] to assess oedema (i.e. lesion size and location) immediately before the PET scan. Parameters for the T2-weighted RARE sequence were: repetition time = 4800 ms, base echo time = 17 ms, effective echo time = 68 ms, number of echoes = 8, bandwidth = 20 kHz, number of samples = 256, number of views = 240, number of averages = 1 with 25 slices of 1.06 mm, giving a final voxel size of 0.136 × 0.136 × 1.06 mm.
# Immunohistochemistry was also carried out in rats that received intrastriatal AMPA to visualise NeuN (neuronal marker). Animals were culled by isoflurane overdose confirmed by cervical dislocation. The brains were collected, snap frozen using isopentane on dry ice and stored at -80 °C. Coronal brain sections (20 µm thick) were taken using a cryostat (Leica CM3050s, Leica Biosystems Nussloch GmbH, Germany) and stored at -80 °C. Sections were allowed to defrost and dry at room temperature for 20min and then fixed with 4% paraformaldehyde for 10 min before being washed (6 × 5 min) in phosphate buffered saline (PBS) and incubated for 30 min in 2% normal donkey serum and 0.1% Triton X-100 in PBS to permeabilise and block non-specific binding. Primary antibody incubation was carried out overnight at 4 °C with rabbit anti-NeuN (Abcam, ab177487, 1:500). Following incubation in primary antibody, PBS washes were repeated (3 × 10min) and incubation with the secondary antibody (Alexa Fluor 594nm Donkey anti-rabbit IgG 1:500) was carried out. Images of the lesioned striatum were collected on an Olympus BX51 upright microscope using a 10×/0.30 UPlanFLN objectives and captured using a Retiga 6000 Color and R6 camera through QCapture Pro 7 and Ocular Software (QImaging Inc.). Specific band pass filter sets were used to prevent bleed through from one channel to the next. NeuN staining was quantified using ImageJ (1.52n) [51]-[53] using 5 snapshots for the caudate putamen, 3 snapshots for the globus pallidus and 2 snapshots for the substantia nigra for each side of the brain (ipsi- and contralateral). Both the total number of neurons averaged over the snapshots and the percentage of stained areas were measured.
# For NeuN staining analysis and ^18F-IAM6067 autoradiography in the AMPA model, percentage stained area, cell counts and ^18F-IAM6067 were analysed using paired t-tests (ipsi- vs contralateral) for the caudate-putamen, globus pallidus and substantia nigra.
# S1R [1] = target: S1R (Rattus norvegicus, UniProt Q9R0C9); assay: PET pre-saturation (blocking) studies of ^18F-IAM6067 uptake; type: in vivo; settings: blocker 1 mg/kg i.v. 20-30 min before scan
# Procedure: PET data were expressed as SUV.
# As the experiments with CM398 were performed later, scans without and with pre-treatment with CM398 were performed in the same animals and therefore were analysed using 2 way ANOVA with repeated measures for ROI and treatment. ANOVA were followed by a Sidak's post-hoc test.
# sigma binding sites = tested on: sigma binding sites; set-up: method as in PMID 8221112; settings: hippocampus of AD patients vs controls, autoradiography; cited from earlier work
# S1R [2] = settings: baboon pre-treated with haloperidol 1 mg/kg i.v.; cited from earlier work
# [3] = globus pallidus, 24 h after intrastriatal AMPA 7.5 nmol, ipsi- vs contralateral
# S1R (Rattus norvegicus, UniProt Q9R0C9), sequence (Q9R0C9 whole entry): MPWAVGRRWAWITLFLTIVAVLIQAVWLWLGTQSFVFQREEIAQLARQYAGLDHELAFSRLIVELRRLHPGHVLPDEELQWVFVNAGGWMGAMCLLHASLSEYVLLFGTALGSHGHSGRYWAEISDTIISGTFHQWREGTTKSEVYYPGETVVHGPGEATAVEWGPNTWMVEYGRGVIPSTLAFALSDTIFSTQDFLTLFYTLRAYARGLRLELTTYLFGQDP
molecule,measurement,setting,value
FCC[C@H]1OC2(CCN(Cc3ccccc3)CC2)c2ccccc21 [(R)-^18F-fluspidine],Ki,σ1 receptor (S1R); enantiomers,0.52 nM
"Cc1onc(O)c1CC(N)C(=O)O (stereo not drawn) [AMPA, α-amino-3-hydroxy-5-methyl-4-isoxazolepropionic acid]","loss of neurons, NeuN % stained area","neurons (NeuN); caudate-putamen, 24 h after intrastriatal AMPA 7.5 nmol, ipsi- vs contralateral",-81 ± 3%
same,"loss of neurons, NeuN % stained area",neurons (NeuN); [3],-71 ± 8%
same,"loss of neurons, NeuN cell number",neurons (NeuN); [3],-56 ± 17%
same,loss of neurons in the striatum (NeuN immunostaining),neurons (NeuN); striatum,70-80%
CN(C)CCN(C)CCc1ccc(Cl)c(Cl)c1 [BD1047],decrease (blocking) of ^18F-IAM6067 uptake in all areas of the brain,S1R [1],79-90%
same,effect of pre-saturation on ^18F-IAM6067 uptake vs baseline (in words),S1R [1],full blocking
COc1cc2c(cc1OC)CN(CCCCn1c(=O)n(C)c3ccccc31)CC2 [CM398],effect of pre-saturation on ^18F-IAM6067 uptake vs baseline (in words),S1R [1],no significant blockade; also recorded: did not reveal any significant difference; also recorded: did not result in a significant reduction
Cn1ccc2cc3c(cc21)CCN3C(=O)Nc1cccnc1 [SB206553],effect of pre-saturation on ^18F-IAM6067 uptake vs baseline (in words),S1R [1],no significant blockade; also recorded: did not reveal any significant difference; also recorded: no significant difference
Cc1ccccc1NC(=N)Nc1ccccc1C [^3H-DTG],decrease in binding,sigma binding sites,26%
COc1ccc(CCN2CCN(CCCc3ccccc3)CC2)cc1OC [^11C-SA4503],Ki,σ1 receptor (S1R),4.4 nM
O=c1sc2cc(CCCF)ccc2n1CCN1CCCCCC1 [^18F-FTC-146],Ki,σ1 receptor (S1R),0.0025 nM
FCCC1OC2(CCN(Cc3ccccc3)CC2)c2ccccc21 (stereo not drawn) [^18F-fluspidine],Ki,σ1 receptor (S1R),0.59 nM
O=C(CCCN1CCC(O)(c2ccc(Cl)cc2)CC1)c1ccc(F)cc1 [haloperidol],displacement in specific receptor binding of ^18F-IAM6067 in all areas of the brain,S1R [2],80%
(S)-^18F-fluspidine,Ki,σ1 receptor (S1R); enantiomers,2.3 nM

# Reference: PMC7381740 (Theranostics, 2020)
